Where two headings read alike, the source gives them in different places.
What was measured:
in vitro = conditions: rat
Description: Serial drug dilutions of 11 3-fold dilution steps covering a range from 100 to 0.002 μg/mL were prepared. After 70 h of incubation, the plates were inspected under an inverted microscope to assure the growth of the controls and sterile conditions. […] Then, the plates were read with a Spectramax Gemini XS microplate fluorometer (Molecular Devices Cooperation, Sunnyvale, CA, USA) using an excitation wavelength of 536 nm and an emission wavelength of 588 nm. […] Podophyllotoxin (Sigma P4405) was used as control.

P. falciparum K1 = test: In vitro 3H-hypoxanthine incorporation assay, erythrocytic stages, K1 strain; assay type: cell-based; conditions: Plasmodium falciparum
Description: (§1) Chloroquine (Sigma C6628) was used as standard. […] Serial drug dilutions of 11 3-fold dilution steps covering a range from 100 to 0.002 μg/mL were prepared. The 96-well plates were incubated in a humidified atmosphere at 37 °C; 4% CO2, 3% O2, 93% N2. […] The plates were incubated for a further 24 h under the same conditions. The plates were then harvested with a Betaplate cell harvester (Wallac, Zurich, Switzerland). The red blood cells were transferred onto a glass fiber filter and washed with distilled water. The dried filters were inserted into a plastic foil with 10 mL of scintillation fluid and counted in a Betaplate liquid scintillation counter (Wallac, Zurich, Switzerland).

early gametocyte stages = tested on: early gametocyte stages; parameters: method as in PMID 24060871, PMID 23234555, PMID 26787698, PMID 26749441, PMID 17521751; conditions: cited from earlier work
Na+-efflux pump PfATP4 = tested on: Na+-efflux pump PfATP4; parameters: method as in PMID 25145582, PMID 33023071, PMID 19956997, PMID 25715757; conditions: possible target; cited from earlier work
[1] = tested on: P. berghei liver schizonts; parameters: method as in PMID 27275010, PMID 16242190; conditions: P. berghei assay; cited from earlier work
[2] = tested on: multiresistant strain K1 of Plasmodium falciparum; parameters: method as in PMID 27467575; conditions: MMV Malaria Box; cited from earlier work
P. falciparum NF54 = test: In vitro 3H-hypoxanthine incorporation assay, erythrocytic stages, NF54 strain; assay type: cell-based, Plasmodium falciparum; conditions: average of four determinations, read-out: P.f. NF54 IC50
Description: as §1

[3] = Parallel artificial membrane permeability assay (PAMPA); assay type: in vitro ADME; conditions: pH 7.4, 200 µM in PBS, room temperature; for Papp at 5 h, 200 µM: pH 7.4, PAMPA, read-out: Pe (effective permeability)
Description: The PAMPA was performed using a 96-well precoated Corning Gentest PAMPA plate at a pH of 7.4. The PAMPA plate system consists of a donor plate and an acceptor plate. When both plates are coupled, each well is divided into two chambers that are separated by a lipid–oil–lipid trilayer constructed in a porous filter. Stock solutions (10 mM) of each compound were prepared in DMSO and then further diluted to a concentration of 200 µM in phosphate-buffered saline (PBS) at pH 7.4. The compound dissolved in PBS was then added to the donor plate and pure PBS was added to the acceptor plate. Four replicates of each compound and negative control (PBS) were transferred into different wells of the donor plate. Both plates were coupled and left at room temperature for 5 h. Then, the plates were separated, and the solutions of each donor well and acceptor well were transferred to 96-well UV-Star Microplates (Greiner Bio-One). The UV absorbance of compounds in donor wells and acceptor wells were analyzed by a SpectraMax M3 UV plate reader (Molecular Devices). The concentrations were received from a calibration curve for each substance. The plates were analyzed at a wavelength where the R^2 value of the calibration curve was higher than 0.99 [34]. The effective permeability (Pe) was calculated as shown in the following Equations (1)–(3):(1) Penm/s=10^7∗−ln1−cAt/cequ/S∗1/VD+1/VA∗ t where:
cequ—equilibrium concentration. (2) cequ=cDt ∗VD+cAt ∗VA/VD+VA where:
Recovery of compounds from donor and acceptor wells (mass retention) was calculated as shown in the equation below. Data were only accepted when recovery exceeded 70%.

[4] = tested on: multiresistant strain Dd2 of Plasmodium falciparum; parameters: method as in PMID 27467575; conditions: MMV Malaria Box; cited from earlier work
[5] = K1, strain resistant to chloroquine and pyrimethamine, average of four determinations, read-out: P.f. K1 IC50
[6] = Plasmodium falciparum, NF54, chloroquine-sensitive strain

IC50 at 72 h (in vitro) [µM]	IC50 (P. falciparum K1; [5]) [µM]	IC50 (P. falciparum NF54; [6]) [µM]	Papp at 5 h, 200 µM [3] [×10⁻⁶ cm/s]	melting point	Compound	other results
111	0.091	0.076	–	199 °C	CCOc1ccc(-c2nonc2NC(=O)c2ccccc2)cc1OCC [Compound 10, N-(4-(3,4-Diethoxyphenyl)-1,2,5-oxadiazol-3-yl)benzamide]	–
14.9	–	0.343 to 0.831	–	–	CCOc1ccc(-c2nonc2NC(=O)c2ccccc2C)cc1OCC [Compound 11, N-(4-(3,4-Diethoxyphenyl)-1,2,5-oxadiazol-3-yl)-2-methylbenzamide]	IC50 (P. falciparum NF54; chloroquine-sensitive strain): 0.343 µM
41.1	0.108	0.049	–	250 °C	CCOc1ccc(-c2nonc2NC(=O)c2cccc(F)c2)cc1OCC [Compound 14, N-(4-(3,4-Diethoxyphenyl)-1,2,5-oxadiazol-3-yl)-3-fluorobenzamide]	–
102	1.87	–	8.13	251 °C (dec.)	CCOc1ccc(-c2nonc2NC(=O)c2ccc(CN3CCCC3)cc2)cc1OCC [Compound 26, N-(4-(3,4-Diethoxyphenyl)-1,2,5-oxadiazol-3-yl)-4-((pyrrolidin-1-yl)methyl)benzamide]	–
116	0.586	0.674 to 4.05	–	269 °C (dec.)	CCOc1ccc(-c2nonc2NC(=O)c2ccc(CN3CCOCC3)cc2)cc1OCC [Compound 27, N-(4-(3,4-Diethoxyphenyl)-1,2,5-oxadiazol-3-yl)-4-((morpholin-4-yl)methyl)benzamide]	IC50 (P. falciparum NF54; chloroquine-sensitive strain): 0.674 µM
77.2	–	0.192	7.26	–	CCOc1ccc(-c2nonc2NC(=O)c2cccc(CN3CCCC3)c2)cc1OCC [Compound 28, N-(4-(3,4-Diethoxyphenyl)-1,2,5-oxadiazol-3-yl)-3-((pyrrolidin-1-yl)methyl)benzamide]	–
104	–	0.712	5.65	199 °C	CCOc1ccc(-c2nonc2NC(=O)c2cccc(CN3CCOCC3)c2)cc1OCC [Compound 29, N-(4-(3,4-Diethoxyphenyl)-1,2,5-oxadiazol-3-yl)-3-((morpholin-4-yl)methyl)benzamide]	–
242	5.02	7.24	10.2 to 10.8	–	CCOc1ccc(-c2nonc2NC(=O)CN2CCCC2)cc1OCC [Compound 31, N-(4-(3,4-Diethoxyphenyl)-1,2,5-oxadiazol-3-yl)-2-(pyrrolidin-1-yl)acetamide]	Pe (effective permeability) [3]: 10.80 10^−6 cm/s
266	19.5	24.2	10.2 to 10.8	–	CCOc1ccc(-c2nonc2NC(=O)CN2CCOCC2)cc1OCC [Compound 32, N-(4-(3,4-Diethoxyphenyl)-1,2,5-oxadiazol-3-yl)-2-(morpholin-4-yl)acetamide]	Pe (effective permeability) [3]: 10.25 10^−6 cm/s
140	2.41	56	6.93	–	CCOc1ccc(-c2nonc2NC(=O)CCN2CCCC2)cc1OCC [Compound 34, N-(4-(3,4-Diethoxyphenyl)-1,2,5-oxadiazol-3-yl)-3-(pyrrolidin-1-yl)propanamide]	–
147	19	30.2	6.08	–	CCOc1ccc(-c2nonc2NC(=O)CCN2CCOCC2)cc1OCC [Compound 35, N-(4-(3,4-Diethoxyphenyl)-1,2,5-oxadiazol-3-yl)-3-(morpholin-4-yl)propanamide]	–

The next lines start with the molecule.

Compound	IC50 at 72 h (in vitro) [µM]	IC50 (P. falciparum K1; [5]) [µM]	IC50 (P. falciparum NF54; [6]) [µM]	Papp at 5 h, 200 µM [3] [×10⁻⁶ cm/s]	melting point	other results
C[C@@H]1CC[C@H]2[C@@H](C)C(=O)O[C@@H]3O[C@@]4(C)CC[C@@H]1[C@]32OO4 [ART, artemisinin, reference compound]	450	0.0064	–	–	–	–
CCN(CC)CCCC(C)Nc1ccnc2cc(Cl)ccc12 (stereo not drawn) [CQ, chloroquine, reference compound]	188	–	–	–	–	IC50 (P. falciparum K1; K1, read-out: P.f. K1 IC50): 0.15 µM
CCOc1ccc(-c2nonc2NC(=O)c2cccc(C)c2)cc1OCC [Compound 1, N-(4-(3,4-Diethoxyphenyl)-1,2,5-oxadiazol-3-yl)-3-methylbenzamide]	159	0.011	0.011	2.77	–	activity against early gametocyte stages (early gametocyte stages): working against early gametocyte stages; inhibition of PfATP4 (Na+-efflux pump PfATP4): likely to inhibit; activity against liver schizonts [1]: activity against liver schizonts; antiplasmodial activity against multiresistant strain K1 [2]: shows antiplasmodial activity; antiplasmodial activity against multiresistant strain Dd2 [4]: shows antiplasmodial activity
CCOc1ccc(-c2nonc2NC(=O)c2ccccc2C(F)(F)F)cc1OCC [Compound 12, N-(4-(3,4-Diethoxyphenyl)-1,2,5-oxadiazol-3-yl)-2-(trifluoromethyl)benzamide]	14.2	–	–	–	–	–
CCOc1ccc(-c2nonc2NC(=O)c2cccc(C(F)(F)F)c2)cc1OCC [Compound 13, N-(4-(3,4-Diethoxyphenyl)-1,2,5-oxadiazol-3-yl)-3-(trifluoromethyl)benzamide]	9.97	0.007	0.019	4.26	153 °C	–
CCOc1ccc(-c2nonc2NC(=O)c2cccc(OC(F)(F)F)c2)cc1OCC [Compound 15, N-(4-(3,4-Diethoxyphenyl)-1,2,5-oxadiazol-3-yl)-3-(trifluoromethoxy)benzamide]	14	–	0.098	–	–	–
CCOc1ccc(-c2nonc2NC(=O)c2ccc(OC)c(Cl)c2)cc1OCC [Compound 16, 3-Chloro-N-(4-(3,4-diethoxyphenyl)-1,2,5-oxadiazol-3-yl)-4-methoxybenzamide]	20	–	0.014 to 0.167	–	260 °C (dec.)	IC50 (P. falciparum NF54; chloroquine-sensitive strain): 0.014 µM
CCOc1ccc(-c2nonc2NC(=O)c2ccc(OC)c(F)c2)cc1OCC [Compound 17, N-(4-(3,4-Diethoxyphenyl)-1,2,5-oxadiazol-3-yl)-3-fluoro-4-methoxybenzamide]	35	–	–	3.9	232 °C (dec.)	–
Cc1cccc(C(=O)Nc2nonc2-c2ccccc2)c1 [Compound 39, 3-Methyl-N-(4-phenyl-1,2,5-oxadiazol-3-yl)benzamide]	66	39.9	21.5	8.47	–	–
COc1cc([C@@H]2c3cc4c(cc3[C@H](O)[C@H]3COC(=O)[C@H]23)OCO4)cc(OC)c1OC [POD, podophyllotoxin, reference compound]	0.012	–	–	–	–	–

From PMC8145535, “New Acyl Derivatives of 3-Aminofurazanes and Their Antiplasmodial Activities” (Pharmaceuticals, 2021)
